Measurements published in ChEMBL document CHEMBL5053549, “Discovery of Potent and Novel Dual PARP/BRD4 Inhibitors for Efficient Treatment of Pancreatic Cancer” (J Med Chem, 2021).
Values belong to the molecule of their own block, whether it stands above or below them. Calls of active or inactive are those of the source. No cut-off for these calls is given here.

How the values were obtained:
[1] = target: T1, Bromodomain-containing protein 4 (Homo sapiens, UniProt O60885); assay: Inhibition of recombinant BRD4 (unknown origin) at 0.5 uM incubated for 120 mins by TR-FRET assay relative to control
[2] = target: Poly [ADP-ribose] polymerase 1 (Homo sapiens, UniProt P09874); assay: Inhibition of PARP1 (unknown origin) incubated for 45 mins in presence of biotinylated-NAD+ by microplate reader analysis
Sequence of Poly [ADP-ribose] polymerase 1 (P09874 whole entry): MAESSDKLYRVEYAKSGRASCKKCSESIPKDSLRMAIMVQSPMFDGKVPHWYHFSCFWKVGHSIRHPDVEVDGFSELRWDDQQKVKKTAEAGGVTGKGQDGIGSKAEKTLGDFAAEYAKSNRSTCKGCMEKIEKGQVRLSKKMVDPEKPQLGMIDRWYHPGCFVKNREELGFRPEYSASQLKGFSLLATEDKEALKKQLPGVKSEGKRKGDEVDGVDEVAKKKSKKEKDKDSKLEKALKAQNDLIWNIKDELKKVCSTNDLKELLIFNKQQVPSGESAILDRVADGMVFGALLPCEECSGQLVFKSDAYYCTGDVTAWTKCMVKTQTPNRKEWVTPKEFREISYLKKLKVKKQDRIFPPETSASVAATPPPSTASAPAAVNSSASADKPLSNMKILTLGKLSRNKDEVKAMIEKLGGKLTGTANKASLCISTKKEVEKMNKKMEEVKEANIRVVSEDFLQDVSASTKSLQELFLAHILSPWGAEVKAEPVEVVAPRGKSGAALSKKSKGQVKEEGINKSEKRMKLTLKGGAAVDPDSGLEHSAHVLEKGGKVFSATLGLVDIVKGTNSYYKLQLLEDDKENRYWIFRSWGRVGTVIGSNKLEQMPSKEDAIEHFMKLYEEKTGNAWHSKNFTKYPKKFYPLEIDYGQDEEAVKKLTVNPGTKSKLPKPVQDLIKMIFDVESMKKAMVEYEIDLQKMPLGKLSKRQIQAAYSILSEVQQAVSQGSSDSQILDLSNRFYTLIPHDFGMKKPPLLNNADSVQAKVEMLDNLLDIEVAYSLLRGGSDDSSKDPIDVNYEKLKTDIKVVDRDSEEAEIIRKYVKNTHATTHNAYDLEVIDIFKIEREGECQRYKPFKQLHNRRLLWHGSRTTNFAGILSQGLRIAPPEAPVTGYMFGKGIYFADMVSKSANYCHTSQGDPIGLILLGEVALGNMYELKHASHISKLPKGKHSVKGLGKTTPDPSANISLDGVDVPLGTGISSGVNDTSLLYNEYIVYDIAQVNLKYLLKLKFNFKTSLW

[3] = target: T1, Bromodomain-containing protein 4; assay: Inhibition of BRD4 expression in human SW1990 cells at 6 uM after 4 days by Q-PCR analysis; type: cell-based; settings: time 4.0 day
Mus musculus [4] = assay: Effect on cell cycle progression in human SW1990 cells xenografted in BALB/c mouse assessed as reduction in PLK1 expression at 45 mg/kg, ip after 4 days by Q-PCR analysis; type: functional, organism-based; settings: time 4.0 day
SW1990 [5] = assay: Inhibition of homologous recombinant repair in human SW1990 cells assessed as reduction in BRCA1 expression at 6 uM after 4 days by Western blot analysis; type: functional, cell-based; settings: time 4.0 day
Mus musculus [6] = assay: In vivo inhibition of PARP1 expression in human […] cells xenografted in BALB/c mouse at 45 mg/kg, ip administered for 28 consecutive days by Western blot analysis; type: functional, organism-based; settings: time 28.0 day
SW1990 [7] = assay: Induction of autophagy in human SW1990 cells assessed as reduction in p62 expression at 6 uM incubated for 4 days by immunofluorescence assay; type: functional, cell-based; settings: time 4.0 day
Mus musculus [8] = assay: In vivo inhibition of PARP1 expression in human […] cells xenografted in BALB/c mouse at 45 mg/kg, ip administered for 28 consecutive days by immunohistochemical analysis; type: functional, organism-based; settings: time 28.0 day
SW1990 [9] = assay: Induction of autophagy in human SW1990 cells assessed as increase in LC3B expression at 6 uM incubated for 4 days by immunofluorescence assay; type: functional, cell-based; settings: time 4.0 day
SW1990 [10] = assay: Antiproliferative activity against human SW1990 cells assessed as reduction in cell viability after 4 days by MTT assay; type: functional, cell-based; settings: SW1990, 96 h
SW1990 [11] = assay: Induction of DNA damage in human SW1990 cells assessed as tail DNA at 6 uM incubated for 4 days by comet assay; type: functional, cell-based; settings: time 4.0 day
SW1990 [12] = assay: Induction of DNA damage in human SW1990 cells assessed as increase in gammaH2AX at 6 uM incubated for 4 days by immunofluorescence assay; type: functional, cell-based; settings: time 4.0 day
Mus musculus [13] = assay: Effect on cell cycle progression in human SW1990 cells xenografted in BALB/c mouse assessed as reduction in CCND1 expression at 45 mg/kg, ip after 4 days by Q-PCR analysis; type: functional, organism-based; settings: time 4.0 day
Mus musculus [14] = assay: Toxicity in BALB/c mouse xenografted with human SW1990 cells assessed as heart damage at 45 mg/kg, ip administered for 28 consecutive days by H and E staining based […] microscopic analysis; type: organism-based; settings: in vivo, 672 h, time 28 day
Mus musculus [15] = assay: Effect on cell cycle progression in human SW1990 cells xenografted in BALB/c mouse assessed as reduction in CCND1 expression at 45 mg/kg, ip after 4 days by Western blot analysis; type: functional, organism-based; settings: time 4.0 day
SW1990 [16] = assay: Effect on cell cycle progression in human SW1990 cells assessed as reduction in PLK1 expression at 6 uM after 4 days by Q-PCR analysis; type: functional, cell-based; settings: time 4.0 day
SW1990 [17] = assay: Effect on cell cycle progression in human SW1990 cells assessed as reduction in CDK6 expression at 6 uM after 4 days by Western blot analysis; type: functional, cell-based; settings: time 4.0 day
Mus musculus [18] = assay: Toxicity in BALB/c mouse xenografted with human SW1990 cells assessed as liver damage at 45 mg/kg, ip administered for 28 consecutive days by H and E staining based […] microscopic analysis; type: organism-based; settings: in vivo, 672 h, time 28 day
Mus musculus [19] = assay: Effect on cell cycle progression in human SW1990 cells xenografted in BALB/c mouse assessed as reduction in CDK6 expression at 45 mg/kg, ip after 4 days by Western blot analysis; type: functional, organism-based; settings: time 4.0 day
CAPAN-1 = assay: Antiproliferative activity against human CAPAN-1 cells assessed as reduction in cell viability after 4 days by MTT assay; type: functional, cell-based; settings: CAPAN-1, 96 h
Mus musculus [20] = assay: Toxicity in BALB/c mouse xenografted with human SW1990 cells assessed as lung damage at 45 mg/kg, ip administered for 28 consecutive days by H and E staining based […] microscopic analysis; type: organism-based; settings: in vivo, 672 h, time 28 day
Mus musculus [21] = assay: In vivo inhibition of BRD4 expression in human […] cells xenografted in BALB/c mouse at 45 mg/kg, ip administered for 28 consecutive days by Western blot analysis; type: functional, organism-based; settings: time 28.0 day
SW1990 [22] = assay: Inhibition of homologous recombinant repair in human SW1990 cells assessed as reduction in BRCA1 expression at 6 uM after 4 days by Q-PCR analysis; type: functional, cell-based; settings: time 4.0 day
Mus musculus [23] = assay: In vivo inhibition of BRD4 expression in human […] cells xenografted in BALB/c mouse at 45 mg/kg, ip administered for 28 consecutive days by immunohistochemical analysis; type: functional, organism-based; settings: time 28.0 day
SW1990 [24] = assay: Effect on cell cycle progression in human SW1990 cells assessed as reduction in PLK1 expression at 6 uM after 4 days by Western blot analysis; type: functional, cell-based; settings: time 4.0 day
SW1990 [25] = assay: Effect on cell cycle progression in human SW1990 cells assessed as reduction in CDK6 expression at 6 uM after 4 days by Q-PCR analysis; type: functional, cell-based; settings: time 4.0 day
Mus musculus [26] = assay: Effect on cell cycle progression in human SW1990 cells xenografted in BALB/c mouse assessed as reduction in PLK1 expression at 45 mg/kg, ip after 4 days by Western blot analysis; type: functional, organism-based; settings: time 4.0 day
SW1990 [27] = assay: Effect on cell cycle progression in human SW1990 cells assessed as reduction in CCND1 expression at 6 uM after 4 days by Q-PCR analysis; type: functional, cell-based; settings: time 4.0 day
MDA-MB-231 = assay: Antiproliferative activity against human MDA-MB-231 cells assessed as reduction in cell viability after 7 days; type: functional, cell-based; settings: MDA-MB-231, 168 h
SW1990 [28] = assay: Inhibition of homologous recombinant repair in human SW1990 cells assessed as reduction in FOXM1 expression at 6 uM after 4 days by Q-PCR analysis; type: functional, cell-based; settings: time 4.0 day
Mus musculus [29] = assay: Toxicity in BALB/c mouse xenografted with human SW1990 cells assessed as spleen damage at 45 mg/kg, ip administered for 28 consecutive days by H and E staining based […] microscopic analysis; type: organism-based; settings: in vivo, 672 h, time 28 day
SW1990 [30] = assay: Effect on cell cycle progression in human SW1990 cells assessed as reduction in CCND1 expression at 6 uM after 4 days by Western blot analysis; type: functional, cell-based; settings: time 4.0 day
[31] = target: T1, Bromodomain-containing protein 4; assay: Inhibition of BRD4 expression in human SW1990 cells at 6 uM after 4 days by Western blot analysis; type: cell-based; settings: time 4.0 day
Mus musculus [32] = assay: Effect on cell cycle progression in human SW1990 cells xenografted in BALB/c mouse assessed as reduction in CDK6 expression at 45 mg/kg, ip after 4 days by Q-PCR analysis; type: functional, organism-based; settings: time 4.0 day
Mus musculus [33] = assay: Toxicity in BALB/c mouse xenografted with human SW1990 cells assessed as kidney damage at 45 mg/kg, ip administered for 28 consecutive days by H and E staining based […] microscopic analysis; type: organism-based; settings: in vivo, 672 h, time 28 day
Mus musculus [34] = assay: In vivo inhibition of PARP1 expression in human […] cells xenografted in BALB/c mouse at 45 mg/kg, ip administered for 28 consecutive days by Q-PCR analysis; type: functional, organism-based; settings: time 28.0 day
SW1990 [35] = assay: Inhibition of homologous recombinant repair in human SW1990 cells assessed as reduction in Rad51 expression at 6 uM after 4 days by Q-PCR analysis; type: functional, cell-based; settings: time 4.0 day
SW1990 [36] = assay: Inhibition of homologous recombinant repair in human SW1990 cells assessed as reduction in Rad51 expression at 6 uM after 4 days by Western blot analysis; type: functional, cell-based; settings: time 4.0 day
Mus musculus [37] = assay: Toxicity in BALB/c mouse xenografted with human SW1990 cells assessed as effect on body weight at 45 mg/kg, ip administered for 28 consecutive days; type: organism-based; settings: in vivo, 672 h, time 28 day
CFPAC-1 = assay: Antiproliferative activity against human CFPAC-1 cells assessed as reduction in cell viability after 4 days by MTT assay; type: functional, cell-based; settings: CFPAC-1, 96 h
Mus musculus [38] = assay: In vivo inhibition of BRD4 expression in human […] cells xenografted in BALB/c mouse at 45 mg/kg, ip administered for 28 consecutive days by Q-PCR analysis; type: functional, organism-based; settings: time 28.0 day
[39] = target: T1, Bromodomain-containing protein 4; assay: Inhibition of recombinant BRD4 (unknown origin) incubated for 120 mins by TR-FRET assay

SMILES: CC[C@@H]1C(=O)N(C)c2cnc(Nc3ccc(-c4nc5c(C(N)=O)cccc5[nH]4)cc3OC(C)C)nc2N1C1CCCC1
inhibition [1]: 75%
IC50 [2]: 2050 nM

SMILES: O=C(c1cc(Cc2n[nH]c(=O)c3ccccc23)ccc1F)N1CCN(C(=O)C2CC2)CC1 [OLAPARIB]
inhibition [3]: inactive
Activity (Mus musculus [4]): inactive
inhibition (SW1990 [5]): inactive
Activity (Mus musculus [6]): inactive
Activity (SW1990 [7]): inactive
Activity (Mus musculus [8]): inactive
Activity (SW1990 [9]): inactive
IC50 (SW1990 [10]): 5.73 µM
Activity (SW1990 [11]): Active
Activity (SW1990 [12]): inactive
Activity (Mus musculus [13]): inactive
Activity (Mus musculus [14]): Non-Toxic
Activity (Mus musculus [15]): inactive
Activity (SW1990 [16]): inactive
Activity (SW1990 [17]): inactive
Activity (Mus musculus [18]): Non-Toxic
Activity (Mus musculus [19]): inactive
IC50 (CAPAN-1): 8.42 µM
Activity (Mus musculus [20]): Non-Toxic
Activity (Mus musculus [21]): inactive
inhibition (SW1990 [22]): inactive
Activity (Mus musculus [23]): inactive
Activity (SW1990 [24]): inactive
Activity (SW1990 [25]): inactive
Activity (Mus musculus [26]): inactive
Activity (SW1990 [27]): inactive
IC50 (MDA-MB-231): 8480 nM
inhibition (SW1990 [28]): inactive
Activity (Mus musculus [29]): Non-Toxic
Activity (SW1990 [30]): inactive
inhibition [31]: inactive
Activity (Mus musculus [32]): inactive
Activity (Mus musculus [33]): Non-Toxic
Activity (Mus musculus [34]): inactive
inhibition (SW1990 [35]): inactive
inhibition (SW1990 [36]): inactive
Activity (Mus musculus [37]): Non-Toxic
IC50 (CFPAC-1): 13.7 µM
Activity (Mus musculus [38]): inactive

SMILES: CC[C@@H]1C(=O)N(C)c2cnc(Nc3ccc(-c4nc5c(C(N)=O)cccc5[nH]4)cc3OC3CCCC3)nc2N1C1CCCC1
inhibition [1]: 47%
IC50 [2]: 1820 nM

SMILES: CC[C@@H]1C(=O)N(C)c2cnc(Nc3ccc(-c4nc5c(C(N)=O)cccc5[nH]4)cc3OC)nc2N1Cc1cccc(C(F)(F)F)c1
inhibition [1]: 17%
IC50 [2]: 1760 nM

Continued, values first:

inhibition [1]: 17%
IC50 [2]: 570 nM
SMILES: CC[C@@H]1C(=O)N(C)c2cnc(Nc3ccc(-c4nc5c(C(N)=O)cccc5[nH]4)cc3OC)nc2N1Cc1ccc(OC)cc1OC

IC50 [2]: 155 nM
IC50 [39]: 693 nM
SMILES: CC[C@@H]1C(=O)N(C)c2cnc(Nc3cccc(-c4nc5c(C(N)=O)cccc5[nH]4)c3)nc2N1C1CCCC1

IC50 [2]: 150 nM
IC50 (SW1990 [10]): 2.12 µM
IC50 [39]: 237 nM
IC50 (MDA-MB-231): 430 nM
SMILES: CC[C@@H]1C(=O)N(C)c2cnc(Nc3ccc(-c4nc5c(C(N)=O)cccc5[nH]4)cc3OC)nc2N1C1CCCC1

inhibition [1]: 52%
IC50 [2]: 338 nM
IC50 (SW1990 [10]): 3.74 µM
IC50 (MDA-MB-231): 1250 nM
SMILES: CC[C@@H]1C(=O)N(C)c2cnc(Nc3ccc(-c4nc5c(C(N)=O)cccc5[nH]4)cc3OC)nc2N1Cc1ccc(C)s1
